The target of this assay is h5-HT2c (vsv) (Homo sapiens, UniProt P28335, I156V/I160V/N158S). The assay is described as follows: cell-based.
Chain of h5-HT2c (vsv) (P28335 33-458 I156V/N158S/I160V limits assumed): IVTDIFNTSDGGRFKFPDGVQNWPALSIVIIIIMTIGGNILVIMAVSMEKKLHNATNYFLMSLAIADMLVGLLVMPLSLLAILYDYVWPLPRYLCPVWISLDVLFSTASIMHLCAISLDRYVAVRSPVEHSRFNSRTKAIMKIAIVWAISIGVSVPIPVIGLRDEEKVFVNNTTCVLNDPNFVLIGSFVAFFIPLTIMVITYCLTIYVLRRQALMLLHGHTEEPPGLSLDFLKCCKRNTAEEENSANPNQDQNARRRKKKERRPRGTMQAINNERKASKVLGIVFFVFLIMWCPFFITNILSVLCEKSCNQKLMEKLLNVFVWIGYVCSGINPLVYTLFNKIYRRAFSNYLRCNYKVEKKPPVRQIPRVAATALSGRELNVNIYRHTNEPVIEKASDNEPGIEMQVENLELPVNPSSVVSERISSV

Usually EC50 stands for the concentration that produces a half-maximal response. Turning to `CCN(C)c1ccc2c(n1)C(C)CNCC2` (stereo not drawn), it took 0.0292 µM to reach a half-maximal effect (EC50).

Consider `CN(C)c1ccc2c(n1)CCNCC2`, for which the EC50 was 0.213 µM.

As for `[O-][S+]1CCN(c2ccc3c(n2)CCNCC3)CC1`, the EC50 came to 0.0051 µM.

The molecule `Clc1cc2c(nc1N1CCOCC1)CCNCC2` yielded an EC50 of 0.176 µM.

Take `CCC1CNCCc2ccc(N(C)CC)nc21` (stereo not drawn): the midpoint of the response, the EC50, lay at 0.0359 µM.

In the case of `C[C@@H]1CNCCc2ccc(N3CCCCC3)nc21`, the EC50 amounted to 0.0021 µM. This EC50 lies about 17-fold lower than the previous one.

Turning to `c1cc2c(nc1N1CCCNCC1)CCNCC2`, the EC50 was 0.262 µM.

Molecule `CCN(C)c1ccc2c(n1)CCNCC2` registered an EC50 of 0.018 µM.

`CC1CNCCc2ccc(N3CCCCC3)nc21` (stereo not drawn) registered an EC50 of 0.0131 µM.

In turn, `c1cc2c(nc1N1CCCCCC1)CCNCC2` returned an EC50 of 0.0102 µM.

With `CC(C)C1CNCCc2ccc(N3CCCCCC3)nc21` (stereo not drawn), the midpoint of the response, the EC50, lay at 0.139 µM. Against the preceding molecule, the EC50 is about 14-fold higher.

Take `CC1CNCCc2ccc(N3CCCOCC3)nc21` (stereo not drawn): the midpoint of the response, the EC50, lay at 0.0217 µM.

The molecule `FC1(F)CCN(c2ccc3c(n2)CCNCC3)CC1` displayed an EC50 of 0.0114 µM. Compared with the last molecule, the EC50 is about 1.9-fold lower.

In turn, `Clc1cc2c(nc1N1CCCCC1)CCNCC2` gave an EC50 of 0.0742 µM. This EC50 lies about 6.5-fold higher than the previous one.

Consider `c1cc2c(nc1N1CCC3(CC1)OCCO3)CCNCC2`, for which the EC50 was 0.29 µM.

For `CCN(CC)c1ccc2c(n1)CCNCC2`, a half-maximal effect (EC50) was put at 0.0773 µM.

The molecule `CC(C)c1ccc2c(n1)C(C)CNCC2` (stereo not drawn) returned an EC50 of 0.295 µM. Compared with the last molecule, the EC50 is about 3.8-fold higher.

On to `C[C@@H]1CNCCc2ccc(N3CCOCC3)nc21`, for which the EC50 turned out to be 0.0581 µM.

The molecule `CC(C)(C)c1ccc2c(n1)CCNCC2` returned an EC50 of 0.106 µM.

`COc1nc2c(cc1Br)CCNCC2` returned an EC50 of 0.0641 µM.

Take `CC(C)C1CNCCc2ccc(N3CCCCC3)nc21` (stereo not drawn): the response was half-maximal at 0.0654 µM (EC50).

For `C=C(C)c1ccc2c(n1)CCNCC2`, the EC50 came out at 0.0791 µM.

`Clc1cc2c(nc1N1CCCOCC1)CCNCC2` displayed an EC50 of 0.0678 µM.

`CC1CNCCc2ccc(N3CCC(F)(F)CC3)nc21` (stereo not drawn): a half-maximal response (EC50) required 0.0294 µM. This EC50 is about 2.3-fold lower than that of the molecule before.

`CCN(C)c1nc2c(cc1Br)CCNCC2` displayed an EC50 of 0.1 µM.

Consider `CC1CNCCc2ccc(N3CCC(F)CC3)nc21` (stereo not drawn), for which the EC50 came to 0.0136 µM.

Take `O=C1CCN(c2ccc3c(n2)CCNCC3)CC1`: the response was half-maximal at 0.299 µM (EC50).

Take `FC1CCN(c2ccc3c(n2)CCNCC3)CC1`: the EC50 is 0.0079 µM. This EC50 lies about 38-fold lower than the previous one.

`c1cc2c(nc1N1CCSCC1)CCNCC2` returned an EC50 of 0.0023 µM.

As to `CC1CNCCc2ccc(N3CCCCCC3)nc21` (stereo not drawn), a half-maximal effect (EC50) was put at 0.0062 µM.

The molecule `CCC1CNCCc2ccc(N3CCOCC3)nc21` (stereo not drawn) showed an EC50 of 0.101 µM.

As to `FC1(F)CCCN(c2ccc3c(n2)CCNCC3)CC1`, the EC50 came out at 0.024 µM.

Turning to `CC1CNCCc2ccc(N3CCOCC3)nc21` (stereo not drawn), the response was half-maximal at 0.0477 µM (EC50). Compared with the last molecule, the EC50 is about 2-fold higher.

In the case of `Brc1cc2c(nc1N1CCCCC1)CCNCC2`, a half-maximal effect (EC50) was put at 0.192 µM. Against the preceding molecule, the EC50 is about 4-fold higher.

The molecule `FC1CCN(c2nc3c(cc2Cl)CCNCC3)CC1` yielded an EC50 of 0.0958 µM.

On to `c1cc2c(nc1N1CCCOCC1)CCNCC2`, for which the EC50 was 0.0105 µM.

On to `c1cc2c(nc1N1CCOCC1)CCNCC2`, for which the response was half-maximal at 0.0639 µM (EC50).

The molecule `CC(C)N(C)c1ccc2c(n1)CCNCC2` returned an EC50 of 0.0854 µM.

As to `CCC1CNCCc2ccc(N3CCCCC3)nc21` (stereo not drawn), the EC50 stood at 0.0164 µM.

For the molecule `CCN(C)c1ccc2c(n1)[C@H](C)CNCC2`, the response was half-maximal at 0.0083 µM (EC50).

In turn, `c1cc2c(nc1N1CCCCC1)CCNCC2` had an EC50 of 0.0106 µM.

As to `c1cc2c(nc1N1C3CCCC1CC3)CCNCC2`, the EC50 is 0.138 µM.

(Values after US20090312306A1, “TETRAHYDRO-5H-PYRIDO[2,3-D]AZEPINES AS 5-HT2C LIGANDS” (priority 2006, published 2009).)
